The test addresses T1, voltage-dependent T-type calcium channel subunit alpha-1G (Cav3.2) (Homo sapiens, UniProt O95180).
T1 construct: expressed in transfected cells; host or cells: HEK293
Kind of test: FLIPR calcium flux assay, HEK293 cells recombinantly expressing Cav3.2. Conditions: Cav3.2-channel, Fluo-4-AM, 3 min incubation, stimulation with 10 mM CaCl2. The test is classed as cell-based. How it is done: In Vitro Methods—Measurement of Calcium Channel Flux by Means of FLIPR Assays.
HEK293 cells recombinantly expressing either voltage-dependent T-type calcium channel subunit […] (Cav3.2) or voltage-dependent L-type calcium channel subunit alpha-1C (Cav1.2) are assayed for calcium flux using the calcium indicator dye Fluo-4-AM (Molecular Devices) and FLIPR technology (Fluorometric Imaging Plate Reader, Molecular Devices) (Xie X, Van Deusen A L, Vitko I, Babu D A, Davies L A, Huynh N, Cheng H, Yang N, Barrett P Q, Perez-Reyes E. Validation of high throughput screening assays against three subtypes of Ca(v)3 T-type channels using molecular and pharmacologic approaches. Assay and Drug Development Technologies 2007, 5(2), 191-203). The HEK293 cells recombinantly expressing Cav3.2 are maintained in DMEM growth medium (Life Technologies) supplemented with 10% Fetal Bovine Serum (FBS), 100 U/ml penicilin (Life Technologies), 100 μg/ml streptomycin (Life Technologies) and 1 mg/ml G418 (Life Technologies). HEK293 cells recombinantly expressing Cav1.2 are maintained in DMEM growth medium (Life technologies) supplemented with 10% FBS, 0.1 mg/ml G418 (Life Technologies), 0.1 mg/ml hygromycin (Life Technologies) and 40 ug/ml zeocin (Life Technologies).
The seeded plates are incubated overnight at 37° C.
The cells are then washed three times with assay buffer (HBSS 1×; 0.375 g/L NaHCO3; 20 mM Hepes; 1% FBS; pH 7.4) and allowed to rest in 50 μl of wash buffer for 30 minutes.
Stock solutions of test compounds are prepared to a concentration of 10 mM in DMSO. For the Cav3.2 assay, serial dilutions of the compounds are prepared in TEAC buffer (100 mM tetraethylammonium chloride; 20 mM Hepes; 2.5 mM CaCl2; 5 mM KCl; 1 mM MgCl2; 1% FBS; pH 7.2), for the Cav1.2 assay serial dilutions are prepared in assay buffer. […] The compounds are incubated with the cells for 3 minutes and Ca2+ entry is stimulated by adding either CaCl2 to a final concentration of 10 mM (Cav3.2 assay) or by adding KCl to a final concentration of 20 mM (Cav1.2 assay). The kinetics of fluorescence increase are recorded for every well and the area under the fluorescence trace for every compound concentration is used to generate inhibition curves using non-linear regression sigmoidal concentration-response curve analysis with in-house software.
On the technique in general: Calcium assays in cells follow changes in intracellular calcium, usually with a dye or a luminescent sensor.

Molecules are shown by their SMILES.

T1 sequence (O95180 whole entry): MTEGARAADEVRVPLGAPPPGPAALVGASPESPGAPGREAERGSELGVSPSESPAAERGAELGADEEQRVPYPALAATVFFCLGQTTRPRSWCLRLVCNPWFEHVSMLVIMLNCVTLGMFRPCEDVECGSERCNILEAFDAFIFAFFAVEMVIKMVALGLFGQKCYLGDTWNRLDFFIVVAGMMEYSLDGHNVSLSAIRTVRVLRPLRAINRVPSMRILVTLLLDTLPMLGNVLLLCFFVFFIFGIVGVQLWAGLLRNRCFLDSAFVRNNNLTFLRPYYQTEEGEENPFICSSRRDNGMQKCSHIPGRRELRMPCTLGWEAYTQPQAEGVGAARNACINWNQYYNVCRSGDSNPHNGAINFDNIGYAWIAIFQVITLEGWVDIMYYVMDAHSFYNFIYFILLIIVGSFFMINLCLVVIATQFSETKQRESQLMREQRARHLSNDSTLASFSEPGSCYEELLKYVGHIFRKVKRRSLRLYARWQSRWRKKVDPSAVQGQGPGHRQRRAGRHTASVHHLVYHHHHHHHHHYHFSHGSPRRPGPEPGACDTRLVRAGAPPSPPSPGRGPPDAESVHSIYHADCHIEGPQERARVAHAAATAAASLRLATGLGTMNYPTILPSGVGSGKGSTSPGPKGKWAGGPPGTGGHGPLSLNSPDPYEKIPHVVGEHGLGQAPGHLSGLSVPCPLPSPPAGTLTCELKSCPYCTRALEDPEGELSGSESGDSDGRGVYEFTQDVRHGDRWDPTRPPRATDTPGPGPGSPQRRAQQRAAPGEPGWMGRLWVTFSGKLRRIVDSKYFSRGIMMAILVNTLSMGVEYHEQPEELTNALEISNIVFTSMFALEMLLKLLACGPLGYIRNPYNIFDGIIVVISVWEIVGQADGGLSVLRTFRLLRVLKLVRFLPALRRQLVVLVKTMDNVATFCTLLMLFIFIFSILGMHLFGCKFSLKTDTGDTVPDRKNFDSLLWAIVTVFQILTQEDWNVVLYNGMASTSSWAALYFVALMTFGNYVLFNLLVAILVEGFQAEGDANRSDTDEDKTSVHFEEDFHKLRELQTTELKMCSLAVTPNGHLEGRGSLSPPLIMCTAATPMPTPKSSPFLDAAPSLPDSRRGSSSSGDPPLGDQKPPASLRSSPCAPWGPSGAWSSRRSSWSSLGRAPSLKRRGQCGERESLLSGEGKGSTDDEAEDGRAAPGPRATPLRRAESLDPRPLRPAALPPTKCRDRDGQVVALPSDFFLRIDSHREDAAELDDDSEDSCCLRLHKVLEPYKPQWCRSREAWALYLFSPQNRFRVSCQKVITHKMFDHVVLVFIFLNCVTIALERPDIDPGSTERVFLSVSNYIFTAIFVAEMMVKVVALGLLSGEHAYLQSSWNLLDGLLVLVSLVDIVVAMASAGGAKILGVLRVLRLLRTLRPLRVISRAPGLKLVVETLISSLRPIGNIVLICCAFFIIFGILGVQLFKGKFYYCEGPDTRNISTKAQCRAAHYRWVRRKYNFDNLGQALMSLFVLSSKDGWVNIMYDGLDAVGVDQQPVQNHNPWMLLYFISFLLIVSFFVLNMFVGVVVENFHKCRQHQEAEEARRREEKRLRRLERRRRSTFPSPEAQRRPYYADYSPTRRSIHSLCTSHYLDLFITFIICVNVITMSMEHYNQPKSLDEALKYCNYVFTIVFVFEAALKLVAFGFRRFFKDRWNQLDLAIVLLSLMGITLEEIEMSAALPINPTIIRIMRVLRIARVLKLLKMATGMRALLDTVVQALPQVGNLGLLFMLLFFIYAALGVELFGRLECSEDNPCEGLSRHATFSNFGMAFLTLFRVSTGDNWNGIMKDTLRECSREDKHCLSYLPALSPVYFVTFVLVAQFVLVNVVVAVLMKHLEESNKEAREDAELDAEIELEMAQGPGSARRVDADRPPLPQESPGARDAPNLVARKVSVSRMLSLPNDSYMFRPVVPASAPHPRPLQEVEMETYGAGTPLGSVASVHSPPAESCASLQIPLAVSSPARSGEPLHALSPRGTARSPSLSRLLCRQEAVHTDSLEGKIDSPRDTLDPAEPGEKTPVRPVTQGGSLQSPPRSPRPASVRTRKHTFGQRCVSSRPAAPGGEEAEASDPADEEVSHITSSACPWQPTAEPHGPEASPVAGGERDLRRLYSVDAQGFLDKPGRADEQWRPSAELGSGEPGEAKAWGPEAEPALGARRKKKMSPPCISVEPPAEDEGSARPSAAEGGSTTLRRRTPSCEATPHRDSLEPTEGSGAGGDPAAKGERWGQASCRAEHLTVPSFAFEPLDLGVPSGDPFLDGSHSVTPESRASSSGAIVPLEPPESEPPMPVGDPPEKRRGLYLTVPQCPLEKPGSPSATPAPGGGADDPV

For the molecule `Cc1ccc(Cn2ccc(NC(=O)Cc3ccc(N(C)C)nc3)n2)cc1` [Example 13, 2-(6-Dimethylamino-pyridin-3-yl)-N-[1-(4-methyl-benzyl)-1H-pyrazol-3-yl]-acetamide], the concentration for half-maximal inhibition (IC50) turned out to be 133 nM.

Regarding `COc1ccc(Cn2ccc(NC(=O)Cc3ccc(N(C)C)nc3)n2)cc1` [Example 14, 2-(6-Dimethylamino-pyridin-3-yl)-N-[1-(4-methoxy-benzyl)-1H-pyrazol-3-yl]-acetamide], the IC50 amounted to 650 nM.

Consider `CN(C)c1ccc(CC(=O)Nc2ccn(Cc3ccc(C#N)cc3)n2)cn1` [Example 15, N-[1-(4-Cyano-benzyl)-1H-pyrazol-3-yl]-2-(6-dimethylamino-pyridin-3-yl)-acetamide], for which the IC50 turned out to be 374 nM.

On to `CCc1ccc(Cn2ccc(NC(=O)Cc3ccc(N(C)C)cc3)n2)cc1` [Example 16, 2-(4-Dimethylamino-phenyl)-N-[1-(4-ethyl-benzyl)-1H-pyrazol-3-yl]-acetamide], for which the IC50 amounted to 10 nM.

As for `CC(C)c1ccc(Cn2ccc(NC(=O)Cc3ccc(N(C)C)cc3)n2)cc1` [Example 17, 2-(4-Dimethylamino-phenyl)-N-[1-(4-isopropyl-benzyl)-1H-pyrazol-3-yl]-acetamide], the IC50 was 12 nM.

With `CN(C)c1ccc(CC(=O)Nc2ccn(Cc3ccc(C(C)(C)C)cc3)n2)cc1` [Example 18, N-[1-(4-tert-Butyl-benzyl)-1H-pyrazol-3-yl]-2-(4-dimethylamino-phenyl)-acetamide], the IC50 stood at 25 nM.

`CN(C)c1ccc(CC(=O)Nc2ccn(Cc3ccc(F)c(OC(F)(F)F)c3)n2)cc1` [Example 22, 2-(4-Dimethylamino-phenyl)-N-[1-(4-fluoro-3-trifluoromethoxy-benzyl)-1H-pyrazol-3-yl]-acetamide]: the IC50 worked out at 5 nM.

Regarding `CN(C)c1ccc(CC(=O)Nc2ccn(Cc3ccc(F)c(C(F)(F)F)c3)n2)cc1` [Example 23, 2-(4-Dimethylamino-phenyl)-N-[1-(4-fluoro-3-trifluoromethyl-benzyl)-1H-pyrazol-3-yl]-acetamide], the 50% inhibitory concentration (IC50) is 6.4 nM.

Regarding `CN(C)c1ccc(CC(=O)Nc2ccn(Cc3cc(F)c(F)c(F)c3)n2)cc1` [Example 24, 2-(4-Dimethylamino-phenyl)-N-[1-(3,4,5-trifluoro-benzyl)-1H-pyrazol-3-yl]-acetamide], the IC50 was 13 nM.

Turning to `Cc1cc(Cn2ccc(NC(=O)Cc3ccc(N(C)C)cc3)n2)cc(C)c1F` [Example 25, 2-(4-Dimethylamino-phenyl)-N-[1-(4-fluoro-3,5-dimethyl-benzyl)-1H-pyrazol-3-yl]-acetamide], the IC50 was 64 nM.

As for `CN(C)c1ccc(CC(=O)Nc2ccn(Cc3ccc(Cl)c(F)c3)n2)cc1` [Example 26, N-[1-(4-Chloro-3-fluoro-benzyl)-1H-pyrazol-3-yl]-2-(4-dimethylamino-phenyl)-acetamide], the IC50 worked out at 5.4 nM.

For the molecule `CN(C)c1ccc(CC(=O)Nc2ccn(Cc3ccc(Cl)c(C(F)(F)F)c3)n2)cc1` [Example 27, N-[1-(4-Chloro-3-trifluoromethyl-benzyl)-1H-pyrazol-3-yl]-2-(4-dimethylamino-phenyl)-acetamide], the IC50 stood at 61 nM.

As for `COc1ccc(Cn2ccc(NC(=O)Cc3ccc(N(C)C)cc3)n2)cc1C(F)(F)F` [Example 29, 2-(4-Dimethylamino-phenyl)-N-[1-(4-methoxy-3-trifluoromethyl-benzyl)-1H-pyrazol-3-yl]-acetamide], the IC50 worked out at 25 nM.

Take `Cc1cc(Cn2ccc(NC(=O)Cc3ccc(N(C)C)cc3)n2)ccc1F` [Example 30, 2-(4-Dimethylamino-phenyl)-N-[1-(4-fluoro-3-methyl-benzyl)-1H-pyrazol-3-yl]-acetamide]: the IC50 is 8.6 nM.

With `CN(C)c1ccc(CC(=O)Nc2ccn(Cc3ccc(F)c(Cl)c3)n2)cc1` [Example 31, N-[1-(3-Chloro-4-fluoro-benzyl)-1H-pyrazol-3-yl]-2-(4-dimethylamino-phenyl)-acetamide], the half-maximal inhibitory concentration (IC50) amounted to 4 nM.

For `Cc1ccc(Cn2ccc(NC(=O)Cc3ccc(N(C)C)cc3)n2)cc1F` [Example 32, 2-(4-Dimethylamino-phenyl)-N-[1-(3-fluoro-4-methyl-benzyl)-1H-pyrazol-3-yl]-acetamide], the half-inhibitory concentration (IC50) amounted to 7.6 nM.

For `CN(C)c1ccc(CC(=O)Nc2ccn(Cc3ccc(C#N)cn3)n2)cc1` [Example 33, N-[1-(5-Cyano-pyridin-2-ylmethyl)-1H-pyrazol-3-yl]-2-(4-dimethylamino-phenyl)-acetamide], the IC50 worked out at 101 nM.

Regarding `CN(C)c1ccc(CC(=O)Nc2ccn(Cc3ccc(Cl)c(OC(F)(F)F)c3)n2)cc1` [Example 34, N-[1-(4-Chloro-3-trifluoromethoxy-benzyl)-1H-pyrazol-3-yl]-2-(4-dimethylamino-phenyl)-acetamide], the IC50 was 91 nM.

With `CCc1ccc(Cn2ccc(NC(=O)Cc3ccc(N(C)C)nc3)n2)cc1` [Example 35, 2-(6-Dimethylamino-pyridin-3-yl)-N-[1-(4-ethyl-benzyl)-1H-pyrazol-3-yl]-acetamide], the concentration for half-maximal inhibition (IC50) was determined as 43 nM.

With `CN(C)c1ccc(CC(=O)Nc2ccn(Cc3ccc(OC(F)F)cc3)n2)cn1` [Example 36, N-[1-(4-Difluoromethoxy-benzyl)-1H-pyrazol-3-yl]-2-(6-dimethylamino-pyridin-3-yl)-acetamide], the half-inhibitory concentration (IC50) was 160 nM.

With `CN(C)c1ccc(CC(=O)Nc2ccn(Cc3ccc(OC(F)(F)F)cc3)n2)cn1` [Example 37, 2-(6-Dimethylamino-pyridin-3-yl)-N-[1-(4-trifluoromethoxy-benzyl)-1H-pyrazol-3-yl]-acetamide], the IC50 came to 29 nM.

Turning to `Cc1ccc(Cn2ccc(NC(=O)Cc3ccc(N(C)C)nc3)n2)cc1F` [Example 38, 2-(6-Dimethylamino-pyridin-3-yl)-N-[1-(3-fluoro-4-methyl-benzyl)-1H-pyrazol-3-yl]-acetamide], the IC50 turned out to be 39 nM.

As for `Cc1cc(Cn2ccc(NC(=O)Cc3ccc(N(C)C)nc3)n2)ccc1F` [Example 39, 2-(6-Dimethylamino-pyridin-3-yl)-N-[1-(4-fluoro-3-methyl-benzyl)-1H-pyrazol-3-yl]-acetamide], the half-inhibitory concentration (IC50) is 49 nM.

As to `CN(C)c1ccc(CC(=O)Nc2ccn(Cc3ccc(F)c(Cl)c3)n2)cn1` [Example 40, N-[1-(3-Chloro-4-fluoro-benzyl)-1H-pyrazol-3-yl]-2-(6-dimethylamino-pyridin-3-yl)-acetamide], the half-maximal inhibitory concentration (IC50) came out at 16 nM.

Consider `CN(C)c1ccc(CC(=O)Nc2ccn(Cc3cc(F)c(F)c(F)c3)n2)cn1` [Example 41, 2-(6-Dimethylamino-pyridin-3-yl)-N-[1-(3,4,5-trifluoro-benzyl)-1H-pyrazol-3-yl]-acetamide], for which the IC50 was 38 nM.

As to `CN(C)c1ccc(CC(=O)Nc2ccn(Cc3ccc(Cl)c(F)c3)n2)cn1` [Example 42, N-[1-(4-Chloro-3-fluoro-benzyl)-1H-pyrazol-3-yl]-2-(6-dimethylamino-pyridin-3-yl)-acetamide], the IC50 was 19 nM.

As for `COc1c(F)cc(Cn2ccc(NC(=O)Cc3ccc(N(C)C)nc3)n2)cc1F` [Example 43, N-[1-(3,5-Difluoro-4-methoxy-benzyl)-1H-pyrazol-3-yl]-2-(6-dimethylamino-pyridin-3-yl)-acetamide], the concentration for half-maximal inhibition (IC50) came out at 82 nM.

Regarding `COc1ccc(Cn2ccc(NC(=O)Cc3ccc(N(C)C)cc3)n2)nc1` [Example 44, 2-(4-Dimethylamino-phenyl)-N-[1-(5-methoxy-pyridin-2-ylmethyl)-1H-pyrazol-3-yl]-acetamide], the IC50 worked out at 372 nM.

Consider `COc1ccc(Cn2ccc(NC(=O)Cc3ccc(OCC(F)(F)F)cc3)n2)cc1` [Example 45, N-[1-(4-Methoxy-benzyl)-1H-pyrazol-3-yl]-2-[4-(2,2,2-trifluoro-ethoxy)-phenyl]-acetamide], for which the IC50 was 33 nM.

In the case of `O=C(Cc1ccc(OCC(F)(F)F)cc1)Nc1ccn(Cc2ccc(F)cc2)n1` [Example 46, N-[1-(4-Fluoro-benzyl)-1H-pyrazol-3-yl]-2-[4-(2,2,2-trifluoro-ethoxy)-phenyl]-acetamide], the half-maximal inhibitory concentration (IC50) came out at 26 nM.

Turning to `N#Cc1ccc(Cn2ccc(NC(=O)Cc3ccc(OCC(F)(F)F)cc3)n2)cc1` [Example 47, N-[1-(4-Cyano-benzyl)-1H-pyrazol-3-yl]-2-[4-(2,2,2-trifluoro-ethoxy)-phenyl]-acetamide], the IC50 was 37 nM.

Consider `CCN(C)c1ccc(CC(=O)Nc2ccn(Cc3ccc(F)cc3)n2)cn1` [Example 48, 2-[6-(Ethyl-methyl-amino)-pyridin-3-yl]-N-[1-(4-fluoro-benzyl)-1H-pyrazol-3-yl]-acetamide], for which the concentration for half-maximal inhibition (IC50) was determined as 138 nM.

One may read the IC50 as the concentration that gives 50% inhibition.

For the origin of these results see patent publication US9932314B2, “Pyrazole compounds and their use as T-type calcium channel blockers” (IDORSIA PHARMACEUTICALS LTD, priority 2015, dated 2018).
